These are literature values, as cited in patent publication US20030148386A1, “Method for drug design using comparative molecular field analysis (CoMFA) extended for multi-mode/multi-species ligand binding and disposition” (priority 2001, published 2003).

The target in this series is T1, aryl hydrocarbon (Ah) receptor (Rattus norvegicus, UniProt P41738).
T1 sequence (P41738 10-853): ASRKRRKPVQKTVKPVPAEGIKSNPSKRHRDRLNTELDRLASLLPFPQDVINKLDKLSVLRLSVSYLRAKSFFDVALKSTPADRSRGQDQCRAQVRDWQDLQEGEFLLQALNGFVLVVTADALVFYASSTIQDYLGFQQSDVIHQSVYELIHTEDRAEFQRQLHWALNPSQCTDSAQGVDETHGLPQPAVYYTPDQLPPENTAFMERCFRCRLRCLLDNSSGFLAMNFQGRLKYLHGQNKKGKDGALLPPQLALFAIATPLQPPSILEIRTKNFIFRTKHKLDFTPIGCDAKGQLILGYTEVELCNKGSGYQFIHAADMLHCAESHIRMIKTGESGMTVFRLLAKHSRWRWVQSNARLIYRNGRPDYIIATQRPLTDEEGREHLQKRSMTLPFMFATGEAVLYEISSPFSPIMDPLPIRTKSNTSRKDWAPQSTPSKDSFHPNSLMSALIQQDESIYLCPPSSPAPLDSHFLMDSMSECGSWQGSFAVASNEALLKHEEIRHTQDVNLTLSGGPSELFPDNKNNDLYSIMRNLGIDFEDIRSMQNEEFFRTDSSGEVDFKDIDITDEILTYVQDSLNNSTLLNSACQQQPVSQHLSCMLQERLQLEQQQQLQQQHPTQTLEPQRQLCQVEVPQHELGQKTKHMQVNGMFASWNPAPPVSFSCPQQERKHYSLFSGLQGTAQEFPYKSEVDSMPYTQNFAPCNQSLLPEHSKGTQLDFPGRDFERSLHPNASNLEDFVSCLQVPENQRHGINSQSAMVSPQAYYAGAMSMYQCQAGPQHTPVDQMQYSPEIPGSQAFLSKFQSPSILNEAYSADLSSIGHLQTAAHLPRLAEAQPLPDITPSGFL
Conditions: for pEC50 observed: pEC50=-log(EC50)=logKi, EC50 in mol/L, displacement of radiolabeled TCDD.

The structures appear in SMILES notation.

As to `Clc1ccc2oc3c(Cl)c(Cl)c(Cl)c(Cl)c3c2c1` [Compound 21], the pEC50 observed is given as 6.921.
For the compound `Clc1cc(Cl)c2c(c1)oc1ccc(Cl)cc12` [Compound 09], the pEC50 observed is recorded as 4.071.
`Clc1cc(Cl)c2oc3c(Cl)cc(Cl)c(Cl)c3c2c1` [Compound 25]: the pEC50 observed is 5.509.
With `Clc1cc(Cl)c2c(c1)oc1c(Cl)cccc12` [Compound 08], the pEC50 observed is reported as 5.357.
With `Clc1cc2oc3c(Cl)cc(Cl)c(Cl)c3c2cc1Cl` [Compound 26], the pEC50 observed is recorded as 5.886.
For the compound `Clc1cc2oc3cc(Cl)c(Cl)c(Cl)c3c2cc1Cl` [Compound 22], the pEC50 observed is 7.128 ± 0.105.
On to `Clc1cc2oc3c(Cl)cccc3c2c(Cl)c1Cl` [Compound 13], for which the pEC50 observed is reported as 6.456.
On to `Clc1ccc2c(c1)oc1ccccc12` [Compound 03], for which the pEC50 observed was 4.377 ± 0.058.
For the compound `Clc1cc(Cl)c2oc3cc(Cl)c(Cl)cc3c2c1` [Compound 19], the pEC50 observed is on record as 6.658.
For the compound `Clc1cc2oc3c(Cl)c(Cl)c(Cl)cc3c2cc1Cl` [Compound 29], the “binding affinity to the Ah receptor (in words)” value is “highest binding affinity” and the pEC50 observed is 7.824 ± 0.028.
With `Clc1cc2c(oc3c(Cl)cc(Cl)c(Cl)c32)c(Cl)c1Cl` [Compound 33], the pEC50 observed is given as 5.081.
For `Clc1cc2c(oc3c(Cl)c(Cl)c(Cl)cc32)c(Cl)c1Cl` [Compound 34], the pEC50 observed is listed as 7.328 ± 0.036.
For `Clc1ccc2c(c1)oc1c(Cl)c(Cl)c(Cl)cc12` [Compound 17], the pEC50 observed is reported as 7.602.
For `Clc1cc2oc3c(Cl)c(Cl)c(Cl)c(Cl)c3c2cc1Cl` [Compound 31], the pEC50 observed is 6.638.
For the compound `Clc1cc(Cl)c2c(c1)oc1cc(Cl)c(Cl)c(Cl)c12` [Compound 23], the pEC50 observed is recorded as 6.398.
`Clc1cc2c(oc3cc(Cl)c(Cl)c(Cl)c32)c(Cl)c1Cl` [Compound 32]: the pEC50 observed is 6.569 ± 0.137.
For `Clc1cc2c(cc1Cl)Oc1cc(Cl)c(Cl)cc1O2` [TCDD, 2,3,7,8-tetrachloro dibenzodioxin, reference compound], the “binding affinity to the Ah receptor (in words)” value is recorded as “highest binding affinity”.
`Clc1cc2c(oc3c(Cl)cccc32)c(Cl)c1Cl` [Compound 16]: the pEC50 observed is given as 6.456.
On to `Clc1cc(Cl)c2c(c1)oc1c(Cl)c(Cl)c(Cl)cc12` [Compound 30], for which the pEC50 observed was 6.699.
Take `Clc1ccc2c(oc3c(Cl)cc(Cl)c(Cl)c32)c1Cl` [Compound 24]: the pEC50 observed is reported as 7.169.
As to `Clc1ccc2oc3c(Cl)c(Cl)c(Cl)cc3c2c1` [Compound 18], the pEC50 observed was 6.699.
As for `Clc1cc2oc3c(Cl)c(Cl)cc(Cl)c3c2cc1Cl` [Compound 28], the pEC50 observed is on record as 6.699.
`Clc1cc(Cl)c2c(c1)oc1c(Cl)cc(Cl)c(Cl)c12` [Compound 27]: the pEC50 observed was 4.699.
As for `Clc1ccc2c(c1)oc1cc(Cl)c(Cl)c(Cl)c12` [Compound 14], the pEC50 observed is 6.959.
On to `Clc1cc2oc3cc(Cl)c(Cl)cc3c2cc1Cl` [Compound 20], for which the pEC50 observed is 7.387 ± 0.059.
